Target: T1, PI3Kα (p110α/p85α) (Homo sapiens, UniProt P42336)
T1 construct: purchased BPS Bioscience (San Diego, Calif.) or Millipore (Billerica, Mass.)
Test: HTRF assay, potency against active PI3Kα
Type: biochemical
Details: HTRF; [ATP]=50 μM, [di-C8-PIP2]=10 μM; 30 min pre-incubation; read-out: PI3Kα Inhibition
Description: Homogeneous Time Resolved Fluorescence (HTRF) Assay Protocol for Potency Assessment Against the Active Forms of PI3Kα, PI3Kβ, and PI3Kγ
The mechanics of the assay platform are best described by the vendor (Millipore, Billerica, Mass.) on their website at the following URL: www.millipore.com/coa/tech1/74jt4z.
Briefly, Stop solution (Stop A, #33-007 and Stop B, #33-009; 3:1 ratio) and Detection Mix (from DMC, #33-015 with DMA, #33-011 and DMB, #33-013; 18:1:1 ratio) were prepared as recommended by the manufacturer about 2 hrs prior to use. […] Lipid kinase reactions were started with the addition of 5 μL of ATP solution, mixed for 15 sec on a rotary plate shaker and incubated for 30-60 minutes at 25° C. Next, reactions were stopped with a 5 μL addition of Stop solution immediately followed by a 5 μL volume of Detection Mix. […] At the conclusion of each assay, the HTRF ratio from fluorescence emission values for each well was calculated and % Inhibition determined from averaged controls wells (+/−PI3K enzyme). % Inhibition values for each compound were then plotted against inhibitor concentration to estimate IC50 from log [Inhibitor] vs Response, Variable Slope model in GraphPad Prism from GraphPad Software (San Diego, Calif.).

T1 sequence (P42336 whole entry): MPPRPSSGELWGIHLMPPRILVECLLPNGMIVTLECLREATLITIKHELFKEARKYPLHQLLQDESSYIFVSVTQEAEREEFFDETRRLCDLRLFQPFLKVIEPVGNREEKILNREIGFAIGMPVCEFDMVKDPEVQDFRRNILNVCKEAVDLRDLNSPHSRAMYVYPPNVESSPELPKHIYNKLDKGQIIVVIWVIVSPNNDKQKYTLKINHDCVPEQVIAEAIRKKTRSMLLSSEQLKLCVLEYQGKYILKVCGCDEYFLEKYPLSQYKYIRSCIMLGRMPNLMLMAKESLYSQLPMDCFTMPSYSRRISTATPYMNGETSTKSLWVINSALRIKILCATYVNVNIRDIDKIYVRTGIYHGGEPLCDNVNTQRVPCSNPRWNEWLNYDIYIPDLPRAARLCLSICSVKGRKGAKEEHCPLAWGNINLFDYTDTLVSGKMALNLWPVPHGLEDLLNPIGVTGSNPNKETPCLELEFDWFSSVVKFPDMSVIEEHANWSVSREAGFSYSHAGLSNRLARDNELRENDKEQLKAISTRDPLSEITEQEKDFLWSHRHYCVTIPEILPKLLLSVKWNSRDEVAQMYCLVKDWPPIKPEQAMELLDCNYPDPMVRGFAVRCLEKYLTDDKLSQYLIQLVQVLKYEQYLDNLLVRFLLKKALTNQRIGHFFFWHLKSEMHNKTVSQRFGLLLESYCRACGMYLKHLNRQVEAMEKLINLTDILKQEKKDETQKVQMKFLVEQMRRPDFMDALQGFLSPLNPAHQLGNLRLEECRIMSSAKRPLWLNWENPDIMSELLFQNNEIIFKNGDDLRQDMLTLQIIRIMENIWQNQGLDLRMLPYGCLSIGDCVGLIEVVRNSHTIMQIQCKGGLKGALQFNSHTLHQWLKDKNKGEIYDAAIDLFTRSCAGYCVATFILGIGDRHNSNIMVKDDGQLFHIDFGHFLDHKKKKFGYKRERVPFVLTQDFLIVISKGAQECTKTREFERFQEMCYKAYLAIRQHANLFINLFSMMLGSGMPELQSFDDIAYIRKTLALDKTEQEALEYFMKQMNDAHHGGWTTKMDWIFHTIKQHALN
T1 sequence (P27986 whole entry partner): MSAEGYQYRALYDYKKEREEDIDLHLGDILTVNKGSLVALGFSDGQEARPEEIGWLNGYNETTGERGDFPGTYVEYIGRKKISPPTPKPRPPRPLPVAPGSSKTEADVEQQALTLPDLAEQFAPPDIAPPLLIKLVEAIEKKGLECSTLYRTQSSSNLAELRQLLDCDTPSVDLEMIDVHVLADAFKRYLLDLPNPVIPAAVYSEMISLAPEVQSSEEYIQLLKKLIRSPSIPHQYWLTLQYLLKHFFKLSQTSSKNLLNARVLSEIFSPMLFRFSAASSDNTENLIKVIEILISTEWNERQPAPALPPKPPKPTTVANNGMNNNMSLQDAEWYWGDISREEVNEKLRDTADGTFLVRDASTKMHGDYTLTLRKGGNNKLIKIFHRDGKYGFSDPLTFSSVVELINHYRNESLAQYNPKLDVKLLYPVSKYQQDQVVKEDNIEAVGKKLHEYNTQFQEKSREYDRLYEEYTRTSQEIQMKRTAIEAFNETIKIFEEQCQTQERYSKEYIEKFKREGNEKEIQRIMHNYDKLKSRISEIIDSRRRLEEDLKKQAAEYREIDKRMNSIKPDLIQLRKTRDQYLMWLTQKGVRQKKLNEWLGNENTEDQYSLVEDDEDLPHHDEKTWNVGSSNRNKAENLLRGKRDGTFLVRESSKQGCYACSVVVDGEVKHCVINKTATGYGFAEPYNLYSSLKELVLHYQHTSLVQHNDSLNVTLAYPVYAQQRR

| SMILES | IC50 [nM] |
| --- | --- |
| C/C=C/C(=O)OCC(=O)N1CCN(Cc2cc3nc(-c4cccc5[nH]ncc45)nc(N4CCOCC4)c3s2)CC1 [II-a-146, (E)-2-(4-((2-(1H-indazol-4-yl)-4-morpholinothieno[3,2-d]pyrimidin-6-yl)methyl)piperazin-1-yl)-2-oxoethyl but-2-enoate] | > 1000 |
| CCC/C=C/C(=O)CCC(=O)N1CCN(Cc2cc3nc(-c4cccc5[nH]ncc45)nc(N4CCOCC4)c3s2)CC1 [II-a-63, (E)-1-(4-((2-(1H-indazol-4-yl)-4-morpholinothieno[3,2-d]pyrimidin-6-yl)methyl)piperazin-1-yl)non-5-ene-1,4-dione] | < 10 |
| C=CC(=O)N1CCC(N2CCN(C(=O)c3cc4nc(-c5cccc(O)c5)nc(N5CCOCC5)c4s3)CC2)CC1 [II-a-120, 1-(4-(4-(2-(3-hydroxyphenyl)-4-morpholinothieno[3,2-d]pyrimidine-6-carbonyl)piperazin-1-yl)piperidin-1-yl)prop-2-en-1-one] | 100 to 1000 |
| C/C=C/C(=O)CCC(=O)N1CCN(c2ccc(-c3cc4nc(-c5cccc(O)c5)nc(N5CCOCC5)c4s3)cc2)CC1 [II-a-102, (E)-1-(4-(4-(2-(3-hydroxyphenyl)-4-morpholinothieno[3,2-d]pyrimidin-6-yl)phenyl)piperazin-1-yl)hept-5-ene-1,4-dione] | < 10 |
| C=CC(=O)N1CCN(c2ccc(-c3cc4nc(-c5cccc6[nH]ncc56)nc(N5CCOCC5)c4s3)cc2)CC1 [II-a-78, 1-(4-(4-(2-(1H-indazol-4-yl)-4-morpholinothieno[3,2-d]pyrimidin-6-yl)phenyl)piperazin-1-yl)prop-2-en-1-one] | 100 to 1000 |
| C=CC(=O)NCC(=O)N1CCc2cc(-c3cc4nc(-c5cccc(O)c5)nc(N5CCOCC5)c4s3)ccc2C1 [II-a-121, N-(2-(6-(2-(3-hydroxyphenyl)-4-morpholinothieno[3,2-d]pyrimidin-6-yl)-3,4-dihydroisoquinolin-2(1H)-yl)-2-oxoethyl)acrylamide] | 100 to 1000 |
| C=CC(=O)NC1CCN(c2ccc(-c3cc4nc(-c5cccc6[nH]ncc56)nc(N5CCOCC5)c4s3)cc2)CC1 [II-a-110, N-(1-(4-(2-(1H-indazol-4-yl)-4-morpholinothieno[3,2-d]pyrimidin-6-yl)phenyl)piperidin-4-yl)acrylamide] | 100 to 1000 |
| C=CC(=O)N1CCN(C2CCC(O)(c3cc4nc(-c5cccc6[nH]ncc56)nc(N5CCOCC5)c4s3)CC2)CC1 (mixture of isomers) [II-a-152, 1-(4-(4-(2-(1H-indazol-4-yl)-4-morpholinothieno[3,2-d]pyrimidin-6-yl)-4-hydroxycyclohexyl)piperazin-1-yl)prop-2-en-1-one] | 100 to 1000 |
| C/C(=C\c1ccccn1)C(=O)CCC(=O)N1CCN(Cc2cc3nc(-c4cccc5[nH]ncc45)nc(N4CCOCC4)c3s2)CC1 [II-a-167, (E)-1-(4-((2-(1H-indazol-4-yl)-4-morpholinothieno[3,2-d]pyrimidin-6-yl)methyl)piperazin-1-yl)-5-methyl-6-(pyridin-2-yl)hex-5-ene-1,4-dione] | 100 to 1000 |
| C=CC(=O)N[C@H]1CC[C@@H](C(=O)N2CCN(Cc3cc4nc(-c5cccc6[nH]ncc56)nc(N5CCOCC5)c4s3)CC2)CC1 [II-a-99] | 100 to 1000 |
| C=CC(=O)NOCC(=O)N1CCN(Cc2cc3nc(-c4cccc5[nH]ncc45)nc(N4CCOCC4)c3s2)CC1 [II-a-147, N-(2-(4-((2-(1H-indazol-4-yl)-4-morpholinothieno[3,2-d]pyrimidin-6-yl)methyl)piperazin-1-yl)-2-oxoethoxy)acrylamide] | 100 to 1000 |
| C=CC(=O)N1CCN(c2ccc(-c3ccnc4ccc(/C=C5\SC(=O)NC5=O)cc34)cn2)CC1 [V-4, (Z)-5-((4-(6-(4-acryloylpiperazin-1-yl)pyridin-3-yl)quinolin-6-yl)methylene)thiazolidine-2,4-dione] | 10 to 100 |
| C=CC(=O)NC1CCN(c2ccc(-c3cc4nc(-c5cccc(O)c5)nc(N5CCOCC5)c4s3)cc2)CC1 [II-a-81, N-(1-(4-(2-(3-hydroxyphenyl)-4-morpholinothieno[3,2-d]pyrimidin-6-yl)phenyl)piperidin-4-yl)acrylamide] | 10 to 100 |
| C=CC(=O)N1CCC(C#Cc2cc3nc(-c4cccc(O)c4)nc(N4CCOCC4)c3s2)CC1 [II-a-70, 1-(4-((2-(3-hydroxyphenyl)-4-morpholinothieno[3,2-d]pyrimidin-6-yl)ethynyl)piperidin-1-yl)prop-2-en-1-one] | 10 to 100 |
| C/C=C/C(=O)CCC(=O)N1CCc2ccc(-c3cc4nc(-c5cccc(O)c5)nc(N5CCOCC5)c4s3)cc2C1 [II-a-67, (E)-1-(7-(2-(3-hydroxyphenyl)-4-morpholinothieno[3,2-d]pyrimidin-6-yl)-3,4-dihydroisoquinolin-2(1H)-yl)hept-5-ene-1,4-dione] | < 10 |
| C=C(C)C(=O)CCC(=O)N1CCC(O)(C#Cc2cc3nc(-c4cccc(O)c4)nc(N4CCOCC4)c3s2)CC1 [II-a-105, 1-(4-hydroxy-4-((2-(3-hydroxyphenyl)-4-morpholinothieno[3,2-d]pyrimidin-6-yl)ethynyl)piperidin-1-yl)-5-methylhex-5-ene-1,4-dione] | < 10 |
| C=CC(=O)N[C@H]1CCCC[C@H]1C(=O)N1CCN(Cc2cc3nc(-c4cccc5[nH]ncc45)nc(N4CCOCC4)c3s2)CC1 [II-a-96] | 100 to 1000 |
| C/C=C/C(=O)CCCC(=O)N1CCN(c2ccc(-c3ccnc4ccc(/C=C5\SC(=O)NC5=O)cc34)cc2)CC1 [V-16, (Z)-5-((4-(4-(4-((E)-5-oxooct-6-enoyl)piperazin-1-yl)phenyl)quinolin-6-yl)methylene)thiazolidine-2,4-dione] | < 10 |
| O=C(C=C1COC1)CCC(=O)N1CCN(Cc2cc3nc(-c4cccc5[nH]ncc45)nc(N4CCOCC4)c3s2)CC1 [II-a-113, 1-(4-((2-(1H-indazol-4-yl)-4-morpholinothieno[3,2-d]pyrimidin-6-yl)methyl)piperazin-1-yl)-5-(oxetan-3-ylidene)pentane-1,4-dione] | > 1000 |
| C=CC(=O)Nc1ccc(C(=O)N2CC=C(c3cc4nc(-c5cccc(O)c5)nc(N5CCOCC5)c4s3)CC2)cc1OCCCN [II-a-155, N-(2-(3-aminopropoxy)-4-(4-(2-(3-hydroxyphenyl)-4-morpholinothieno[3,2-d]pyrimidin-6-yl)-1,2,3,6-tetrahydropyridine-1-carbonyl)phenyl)acrylamide] | 10 to 100 |
| CC(C)=CC(=O)CCC(=O)N1CCN(Cc2cc3nc(-c4cnc(N)nc4)cc(N4CCOCC4)c3s2)CC1 [II-g-7, 1-(4-((5-(2-aminopyrimidin-5-yl)-7-morpholinothieno[3,2-b]pyridin-2-yl)methyl)piperazin-1-yl)-6-methylhept-5-ene-1,4-dione] | 100 to 1000 |
| C/C=C/C(=O)CCC(=O)N1CCN(c2ccc(-c3ccnc4ccc(/C=C5\SC(=O)NC5=O)cc34)cn2)CC1 [V-13, (Z)-5-((4-(6-(4-((E)-4-oxohept-5-enoyl)piperazin-1-yl)pyridin-3-yl)quinolin-6-yl)methylene)thiazolidine-2,4-dione] | < 10 |

More lines, now with the values ahead:

| IC50 [nM] | SMILES |
| --- | --- |
| 100 to 1000 | CC(C)=CC(=O)C1(C(=O)N2CCC(C#Cc3cc(-c4cnc(N)nc4)nc(N4CCOCC4)c3)CC2)CC1 [XII-33, 1-(1-(4-((2-(2-aminopyrimidin-5-yl)-6-morpholinopyridin-4-yl)ethynyl)piperidine-1-carbonyl)cyclopropyl)-3-methylbut-2-en-1-one] |
| > 1000 | C/C=C/C(=O)CCCC(=O)Nc1ccc2c(c1)N(c1nc3c(s1)C(=O)NC(C)(C)C3)CCO2 [VI-24, (E)-N-(4-(6,6-dimethyl-4-oxo-4,5,6,7-tetrahydrothiazolo[5,4-c]pyridin-2-yl)-3,4-dihydro-2H-benzo[b][1,4]oxazin-6-yl)-5-oxooct-6-enamide] |
| 10 to 100 | CC(C)=CC(=O)C(=O)N1CCN(c2ccc(-c3cc(-c4cnc(N)nc4)nc(N4CCOCC4)c3)cc2)CC1 [XII-24, 1-(4-(4-(2-(2-aminopyrimidin-5-yl)-6-morpholinopyridin-4-yl)phenyl)piperazin-1-yl)-4-methylpent-3-ene-1,2-dione] |
| 100 to 1000 | CC(C)=CC(=O)C1(C(=O)N2CCC3(CC2)CN(c2cc(-c4cnc(N)nc4)nc(N4CCOCC4)c2)C3)CC1 [XII-38, 1-(1-(2-(2-(2-aminopyrimidin-5-yl)-6-morpholinopyridin-4-yl)-2,7-diazaspiro[3.5]nonane-7-carbonyl)cyclopropyl)-3-methylbut-2-en-1-one] |
| > 1000 | CC(C)=CC(=O)c1ccc(CCNC(=O)c2cc(-c3cccc4[nH]ncc34)nc(N3CCOCC3)c2)cc1 [XII-12] |
| 100 to 1000 | C=CC(=O)Nc1ccc(CCNC(=O)c2cc(-c3cnc(N)nc3C)nc(N3CCOCC3)c2)cc1 [XII-16, N-(4-acrylamidophenethyl)-2-(2-amino-4-methylpyrimidin-5-yl)-6-morpholinoisonicotinamide] |
| > 1000 | C=CC(=O)Nc1ccc(C(=O)N2CCC(n3nc(-c4ccc(OC)c(OC)c4)c4c(N)ncnc43)CC2)cc1 [XI-6, N-(4-(4-(4-amino-3-(3,4-dimethoxyphenyl)-1H-pyrazolo[3,4-d]pyrimidin-1-yl)piperidine-1-carbonyl)phenyl)acrylamide] |
| 100 to 1000 | CC(C)=CC(=O)CCC(=O)N1CCC(C#Cc2cc(-c3cnc(N)nc3)nc(N3CCOCC3)c2)CC1 [XII-31, 1-(4-((2-(2-aminopyrimidin-5-yl)-6-morpholinopyridin-4-yl)ethynyl)piperidin-1-yl)-6-methylhept-5-ene-1,4-dione] |

Source: US20110230476A1, “PI3 KINASE INHIBITORS AND USES THEREOF” (AVILA THERAPEUTICS, INC., priority 2009, published 2011)
